Test results as given in US8476197B2, “Aminopropenoates as fungicides” (priority 2009, dated 2013).
Marks after values point to notes of the source that are not given here.

conditions: pH 2.3

| Log P | SMILES |
| --- | --- |
| 2.42 | CCOC(=O)C(C#N)=C(NC1CCSC1=O)c1cccnc1Cl (racemic) [Compound 44] |

same assay, conditions: pH 2.7

| Log P | SMILES |
| --- | --- |
| 3.72^[a] | CC(C)C(C)NC(=C(C#N)C(=O)NC1CC1(C)C)c1cccnc1Cl (mixture of isomers) [Compound 1495] |
| 2.67^[a] | CCOC(=O)C(C#N)=C(NC(C)C(C)OC)c1cnn(C)c1Cl (mixture of isomers) [Compound 1543] |
| 3.6^[a] | CCOC(=O)C(C#N)=C(NC(C)C(C)CC)c1cnn(C)c1Cl (mixture of isomers) [Compound 1544] |
| 4.04^[a] | CCOC(=O)C(C#N)=C(NC(C)c1nc(C)c(C)s1)c1ncc(C(F)(F)F)cc1Cl (racemic) [Compound 37] |
| 2.37^[a] | CCOC(=O)C(C#N)=C(NC(C)c1nccs1)c1c(C)nn(C)c1F (racemic) [Compound 38] |
| 4.07^[a] | CCOC(=O)C(C#N)=C(NC(C)Cc1c[nH]c2ccccc12)c1ncc(C(F)(F)F)cc1Cl (racemic) [Compound 41] |
| 3.44^[a] | CCOC(=O)C(C#N)=C(NC(C)c1ccccn1)c1ncc(C(F)(F)F)cc1Cl (racemic) [Compound 43] |
| 2.94^[a] | CCOC(=O)C(C#N)=C(NC(C)c1nc(C)c(C)s1)c1c(C)nn(C)c1F (racemic) [Compound 45] |
| 3.07^[a] | CCOC(=O)C(C#N)=C(NC(C)Cc1c[nH]c2ccccc12)c1c(C)nn(C)c1F (racemic) [Compound 46] |
| 2.65^[a] | COC(=O)C(C#N)=C(NC(C)c1nc(C)c(C)s1)c1cn(C)nc1C(F)F (racemic) [Compound 47] |
| 2.28^[a] | CCOC(=O)C(C#N)=C(NC(C)c1ccccn1)c1c(C)nn(C)c1F (racemic) [Compound 50] |
| 4.25^[a] | CCOC(=O)C(C#N)=C(NC(c1cc2ccccc2s1)C(F)(F)F)c1c(C)nn(C)c1F (racemic) [Compound 51] |

The next lines start with the compound.

| SMILES | Log P |
| --- | --- |
| CCOC(=O)C(C#N)=C(NC(C)c1nc(C)c(C)s1)c1cn(C)nc1C(F)F (racemic) [Compound 33] | 2.96^[a] |
| CCOC(=O)C(C#N)=C(NC(C)c1nccs1)c1cn(C)nc1C(F)F (racemic) [Compound 34] | 2.4^[a] |
| CCOC(=O)C(C#N)=C(NC(C)Cc1c[nH]c2ccccc12)c1cn(C)nc1C(F)F (racemic) [Compound 35] | 3.25^[a] |
| CCOC(=O)C(C#N)=C(NC(C)c1ccccn1)c1cn(C)nc1C(F)F (racemic) [Compound 36] | 2.33^[a] |
| CCOC(=O)C(C#N)=C(NC(c1cc2ccccc2s1)C(F)(F)F)c1cn(C)nc1C(F)F (racemic) [Compound 48] | 4.1^[a] |

same assay, conditions: pH 7.5

| SMILES | Log P |
| --- | --- |
| C=CCOC(=O)C(C#N)=C(NC(C)C1CC1)c1cccnc1Cl (mixture of isomers) [Compound 906] | 3.08 |
| CCOC(=O)C(C#N)=C(NC(C)C1CC1)c1cccnc1Cl (mixture of isomers) [Compound 913] | 2.9 |
| CCOC(=O)C(C#N)=C(NC(C)C1CC1)c1ccc(Cl)nc1Cl (mixture of isomers) [Compound 914] | 3.54 |
| COC(=O)C(C#N)=C(NC(C)C(C)(C)C)c1cccnc1Cl (mixture of isomers) [Compound 916] | 3.14 |
| CCOC(=O)C(C#N)=C(NC1CCCCC1O)c1cccnc1Cl (mixture of isomers) [Compound 1064] | 2.27 |
| CC(NC(=C(C#N)C(=O)OC1CCC1)c1cccnc1Cl)C1CC1 (mixture of isomers) [Compound 1245] | 3.46 |
| COC(=O)C(C#N)=C(NC(C)C1CC1)c1cccnc1Cl (mixture of isomers) [Compound 1307] | 2.58 |
| CCOC(=O)C(C#N)=C(NC(C)C=NOC)c1cccnc1Cl (mixture of isomers) [Compound 1322] | 2.49 |
| CCOC(=O)C(C#N)=C(NC(C)CCCC(C)C)c1cccnc1Cl (mixture of isomers) [Compound 1582] | 4.47 |
| CCOC(=O)C(C#N)=C(NC1CCSC1=O)c1cccnc1Cl (racemic) [Compound 44] | 2.23 |
| CCOC(=O)C(C#N)=C(NC(C)Cc1ncc(C(F)(F)F)cc1Cl)c1cccnc1Cl (racemic) [Compound 49] | 3.76 |
